“Also recorded” adds a separate entry of the source. Like-named read-outs stand apart in the source and are kept apart here.
Tests used:
[1] = system: NRK 52E cells (normal rat kidney cells); assay: Cell proliferation assay on normal rat kidney cells (Alamar blue, 24-96 h); format: cell-based
Procedure: (§1) Cell proliferation assay on normal rat kidney cells. To assess potential effects on cell proliferation, the Alamar blue assay was performed using NRK 52E cells. Cells were harvested as described for the toxicity assay and seeded in 96-well tissue culture plates at a density of about 3×10^3 cells/well and evaluated over a 96-h time frame. Cells were allowed to attach for 3 h in the basal, serum-containing DMEM medium. After attachment, the media was aspirated and replaced with test solutions according to the design described for the toxicity assay with the addition of the Alamar blue dye to each solution (as 10% vol/vol). The reduction of Alamar blue dye was measured in a fluorimetric plate reader (Cytofluor) at 24, 48, 72 and 96 h. Morphological observation was also performed to ensure that the cell patterns matched the fluorescence data. Data were collected as raw fluorescence units and expressed as a percentage of the solvent control using the average values from all 8 wells used for each group (mean fluorescence test/mean fluorescence control×100=% control fluorescence) at each time period. As a further check to ensure that Alamar blue was not itself exerting some growth or inhibitory effects the experiments were also performed by plating cells at the lower density with exposures for 72 h without Alamar blue in the media. After the 72-h growth period, the media was aspirated and fresh DMEM containing Alamar blue (10% vol/vol) was added to all wells. Cells were further incubated in the Alamar blue solution for 6 h and fluorescence measured and data collected and expressed as described.

[2] = system: H508 human colon cancer cells; assay: H508 colon cancer cell proliferation assay (sulforhodamine B colorimetric assay); format: cell-based; settings: for effect on EGF-induced H508 cell proliferation: EGF 1 ng/ml; for effect on acetylcholine-induced H508 cell proliferation: acetylcholine 300 μM
Procedure: H508 colon cancer cell culture. H508 human colon cancer cells were grown in RPMI 1640 (ATCC) supplemented with 10% fetal bovine serum (FBS) (Biowhittaker). Adherent cultures were passaged weekly at subconfluence after trypsinization. Cultures were maintained in incubators at 37° C. in an atmosphere of 5% CO2 and 95% air.
H508 colon cancer cell proliferation assay. Cell proliferation was determined using the sulforhodamine B (SRB) colorimetric assay (Skehan et al., 1990). Cells were seeded in 96-well plates (Corning Glass Works, Corning, N.Y.) at approx. 10% confluence and allowed to attach for 24 h. Growth medium was removed and fresh medium without FBS and containing the indicated concentration of test agent was added. Cells were incubated for the indicated periods of time at 37° C. in an atmosphere of 5% CO2 and 95% air. After incubation, cells were treated for 30 min with 0.4% (w/v) SRB dissolved in 1% acetic acid. Protein-bound dye was extracted with unbuffered 10 mM Tris base. Absorbance was measured at 560 nm using a computer-interfaced, 96-well microtiter plate reader.
c-di-GMP inhibits proliferation of human colon cancer cells. The potential therapeutic actions of c-di-GMP were examined on basal and growth factor-stimulated proliferation of cells derived from a moderately differentiated human cecal adenocarcinoma (H508 cells) that express M3 muscarinic (M3R) and epidermal growth factor (EGF) receptors (EGFR) (Cheng et al., 2003). Cell proliferation was determined using the validated sulforhodamine B (SRB) calorimetric assay (Skehan et al., 1990). H508 cells were incubated in the absence or presence of a growth stimulant, acetylcholine (300 μM) and EGF (1 ng/ml) alone or with increasing concentrations of c-di-GMP (0.5-50 μM). After a 5-day incubation, the highest concentration of c-di-GMP tested, 50 μM, reduced basal H508 cell proliferation by approx. 15% (FIG. 1; p<0.05 compared to control, Student's unpaired t-test).

[3] = system: NRK 52E cells (normal rat kidney cells); assay: Cytotoxicity on normal rat kidney cells using the Alamar blue assay; format: cell-based; settings: for decrease in fluorescence: 200 μM
Procedure: Toxicity assays in normal rat kidney cells (NRK). The toxicity of c-di-GMP in independent cell lines was tested. In these studies, acute (24 and 72 h) toxicity in NRK 52 E cells (normal rat kidney cells) was determined using the Alamar blue assay. NRK 52E cells are a rat renal tubule epithelial cell line originally cloned from a mixed culture termed NRK. The Alamar blue assay is designed to measure the proliferation of cell lines and is used routinely to determine the cytotoxicity of various chemicals. […] It is minimally toxic to most living cells.
Chemical toxicity on normal rat kidney cells. To assess chemical toxicity, the Alamar blue assay was performed using NRK 52E cells plated at near confluence in 96-well tissue culture plates (Costar). Cells were maintained in DMEM containing 10% FBS and penicillin/streptomycin in tissue culture flasks. Cells were harvested by trypsinization, resuspended in the basal medium and counted. NRK 52E cells were plated at a density of 4-5×10^4 cells/well. After a 24-h attachment/acclimation interval, the tissue culture media was aspirated and replaced with the appropriate test solution. For most experiments, 8 wells were used for each solution, i.e., each solution was tested in one column of 8 replicate wells. […] Plates were incubated for 24 or 72 h and observed under phase contrast microscopy. All solutions were aspirated and replaced with fresh DMEM containing Alamar blue dye (10% vol/vol). Plates were incubated at 37° C. for an additional 6 h after which fluorescence was measured using a fluorimetric plate reader (Cytofluor). Data were collected as raw fluorescence units and expressed as a percentage of the solvent control using average values from all 8 wells for each group (mean fluorescence test/mean fluorescence control×100=% control fluorescence).
as §1

CD1 mice = assay: Lethality in CD1 mice; settings: 50 μl of 200 μM c-di-GMP, after 24 h
[4] = system: p44/42 (ERK1/2) mitogen-activated protein kinase (MAPK) cascade; assay: Acetylcholine- and EGF-induced activation of p44/42 MAPK signaling in H508 cells; format: cell-based, human
[5] = system: H508 human colon cancer cells; assay: H508 colon cancer cell proliferation assay (sulforhodamine B colorimetric assay); format: cell-based; settings: 50 μM
[6] = increasing concentrations 0.5-50 μM, 5 days

`Nc1nc(=O)c2ncn([C@@H]3OC4COP(=O)(O)O[C@H]5[C@@H](O)[C@H](n6cnc7c(=O)nc(N)[nH]c76)O[C@@H]5COP(=O)(O)OC4C3O)c2[nH]1` (stereo partly drawn) [c-di-GMP, Bis(3′-->5′)-cyclic diguanylic acid] was tested, and the “fluorescence (% of control), NRK cell proliferation” value (shortened to “fluorescence (% of control)”) ([1]; 100 μM, 48 h) was 75 % of control fluorescence, the “fluorescence (% of control)” value ([1]; 100 μM, 72 h) was 87 % of control fluorescence and the “fluorescence (% of control)” value ([1]; 100 μM, 96 h) was 94 % control fluorescence. The “fluorescence (% of control)” value ([1]; 200 μM, 96 h) was 85 % of control, the NRK cell proliferation ([1]; 200 μM, up to 96 h) was “retardation of cell proliferation that was much less pronounced than the 400-μM dose” and the NRK cell proliferation ([1]; 400 μM, 96-h period of exposure) was “little growth over the 96-h period of exposure”. For the same compound, the NRK cell proliferation ([1]; 5, 25 or 50 μM (data not shown)) was “not altered”, the “effect on basal H508 cell proliferation” value ([2]; 50 μM, 5 days incubation) was “inhibited” and the “effect on EGF-induced H508 cell proliferation” value ([2]; 50 μM, 5 days) was “reduced to basal levels”. For the same compound, the “effect on acetylcholine-induced H508 cell proliferation” value ([2]; 50 μM, 5 days) was “reduced to basal levels”, the “reduction of basal H508 cell proliferation” value ([2]; 50 μM, basal (no stimulant), 5-day incubation) was “approx. 15%” and the “effect on EGF-induced H508 cell proliferation” value [2, 6] was “inhibit; also recorded: progressively inhibited”. The “effect on acetylcholine-induced H508 cell proliferation” value [2, 6] was “inhibit; also recorded: progressively inhibited”, the “effect on basal H508 cell proliferation” value ([2]; increasing concentrations, 5 days (FIG. 1)) was “inhibit” and the “effect on basal H508 cell proliferation” value ([2]; lower concentrations (below 50 μM), 5 days) was “did not significantly alter basal proliferation; also recorded: did not alter basal cell proliferation”. The decrease in fluorescence ([3]; 72 h confluent cells) was 36%, the decrease in fluorescence ([3]; 72 h non-confluent cells) was 14% and the “toxicity on normal rat kidney cells” value ([3]; 400 μM, 24 h) was “nontoxic”. The “fluorescence relative to the solvent control” value ([3]; 20, 40, 100 μM) was “no decease in fluorescence relative to the solvent control”, the “toxicity on NRK cells” value ([3]; 200 and 400 μM, 72 h exposure) was “toxicity was observed” and the “cytotoxicity on NRK cells” value ([3]; 24 h exposure) was “little evidence of cytotoxicity”. For the same compound, the “cytotoxicity on normal rat kidney cells” value ([3]; all relevant biological concentrations / biologically relevant doses) was “no cytotoxicity”, the “Fluorescence (% control)” value ([3]; c-di-GMP 20 μM, 24-h confluent) was 98.5 % control and the “Fluorescence (% control)” value ([3]; c-di-GMP 20 μM, 72-h confluent) was 98.0 % control. For the same compound, the “Fluorescence (% control)” value ([3]; c-di-GMP 20 μM, 72-h non-confluent) was 97.0 % control, the “Fluorescence (% control)” value ([3]; c-di-GMP 40 μM, 24-h confluent) was 99.4 % control and the “Fluorescence (% control)” value ([3]; c-di-GMP 40 μM, 72-h confluent) was 98.0 % control. The “Fluorescence (% control)” value ([3]; c-di-GMP 40 μM, 72-h non-confluent) was 99.0 % control, the “Fluorescence (% control)” value ([3]; c-di-GMP 100 μM, 24-h confluent) was 99.7 % control and the “Fluorescence (% control)” value ([3]; c-di-GMP 100 μM, 72-h confluent) was 92.2 % control. The “Fluorescence (% control)” value ([3]; c-di-GMP 200 μM, 24-h confluent) was 101.6 % control, the “Fluorescence (% control)” value ([3]; c-di-GMP 200 μM, 72-h confluent) was 64.2 % control and the “Fluorescence (% control)” value ([3]; c-di-GMP 200 μM, 72-h non-confluent) was 86.0 % control. The “Fluorescence (% control)” value ([3]; c-di-GMP 400 μM, 24-h confluent) was 96.2 % control, the “Fluorescence (% control)” value ([3]; c-di-GMP 400 μM, 72-h confluent) was 40.0 % control and the “Fluorescence (% control)” value ([3]; c-di-GMP 400 μM, 72-h non-confluent) was 3.0 % control. The lethality (CD1 mice) was “non-lethal”, the “effect on EGF-induced activation (phosphorylation) of p44/42 MAPK” value [4] was “did not alter” and the “effect on acetylcholine-induced activation (phosphorylation) of p44/42 MAPK” value [4] was “did not alter”. For the same compound, the “effect on EGF-induced activation (phosphorylation) of p44/42 MAPK” value ([4]; listed as cyclic-di-GMP) was “do not inhibit”, the “effect on acetylcholine-induced activation (phosphorylation) of p44/42 MAPK” value ([4]; listed as cyclic-di-GMP) was “do not inhibit” and the “apoptosis of H508 cells by microscopic examination” value [5] was “not observed by microscopic examination”.
